Data from ChEMBL document CHEMBL5625189, “Discovery of new diaryl ether inhibitors against Mycobacterium tuberculosis targeting the minor portal of InhA” (Eur J Med Chem, 2023).
Converted amounts (≈) assume the structure as drawn.

Assays:
Assay type in all cases: functional
Settings in all cases: 432 h, time 18 day
[1] = tested on: Mycobacterium tuberculosis; experiment: Antimycobacterial activity against Mycobacterium tuberculosis H37Ra harbouring pVV2 plasmid assessed as inhibition of bacterial growth incubated for 18 days by drop dilution method
[2] = tested on: Mycobacterium tuberculosis; experiment: Antimycobacterial activity against Mycobacterium tuberculosis H37Ra harbouring pVV2 plasmid overexpressing katG assessed as inhibition of bacterial growth incubated for 18 days by drop dilution method
[3] = tested on: Mycobacterium tuberculosis; experiment: Antimycobacterial activity against Mycobacterium tuberculosis H37Ra harbouring pMV261 plasmid overexpressing InhA assessed as inhibition of bacterial growth incubated for 18 days by drop dilution method
[4] = tested on: Mycobacterium tuberculosis; experiment: Antimycobacterial activity against Mycobacterium tuberculosis H37Ra harbouring pMV261 plasmid assessed as inhibition of bacterial growth incubated for 18 days by drop dilution method
[5] = tested on: Mycobacterium tuberculosis; experiment: Antimycobacterial activity against Mycobacterium tuberculosis H37Ra harbouring pVV16 plasmid overexpressing hadABC assessed as inhibition of bacterial growth incubated for 18 days by drop dilution method

SMILES: Cc1cc(=O)oc2cc(OCc3cn(Cc4ccc(Oc5ccccc5)c(O)c4)nn3)ccc12
- MIC [1]: 1.25 µM (≈ 0.569 µg/mL)
- MIC [2]: 1.25 µM (≈ 0.569 µg/mL)
- MIC [3]: 12.5 µM (≈ 5.69 µg/mL)
- MIC [4]: 1.25 µM (≈ 0.569 µg/mL)
- MIC [5]: 1.25 µM (≈ 0.569 µg/mL)

SMILES: CCN(CC)c1ccc2c(OCc3cn(Cc4ccc(Oc5ccccc5)c(O)c4)nn3)cc(=O)oc2c1
- MIC [1]: 6.25 µM (≈ 3.2 µg/mL)
- MIC [2]: 6.25 µM (≈ 3.2 µg/mL)
- MIC [3]: > 25 µM
- MIC [4]: 6.25 µM (≈ 3.2 µg/mL)
- MIC [5]: 6.25 µM (≈ 3.2 µg/mL)

SMILES: CCCCCCc1ccc(Oc2ccc(Cn3cc(CNc4ccc([N+](=O)[O-])c5nonc45)nn3)cc2)c(O)c1
- MIC [1]: 2.5 µM (≈ 1.36 µg/mL)
- MIC [2]: 2.5 µM (≈ 1.36 µg/mL)
- MIC [3]: 2.5 µM (≈ 1.36 µg/mL)
- MIC [4]: 2.5 µM (≈ 1.36 µg/mL)
- MIC [5]: 2.5 µM (≈ 1.36 µg/mL)
